Assay results taken from DBAASP.
In brackets after ≈: the same amount, converted by molar mass. Blank lines part the entries; values can stand above or below the compound they belong to.

Columns and labels:
Assay in all cases: ≥ marks a high value that may be exact or a test limit, other limits are often not marked, values filed in µg/mL are converted to µM
[1] = tested on: Aeromonas salmonicida 99-1
[2] = tested on: Escherichia coli DC2
[3] = tested on: Aeromonas salmonicida 97-4
[4] = tested on: Staphylococcus aureus C623
[5] = tested on: Candida albicans C627
[6] = tested on: Salmonella enterica serovar typhimurium MS7953s
[7] = tested on: Pseudomonas aeruginosa Z61
[8] = tested on: Escherichia coli CGSC 4908
[9] = tested on: Salmonella enterica subsp. enterica serovar Typhimurium ATCC 14028s
[10] = tested on: Escherichia coli UB1005
[11] = tested on: Pseudomonas aeruginosa K799
[12] = tested on: Staphylococcus epidermidis C621
[13] = tested on: Bacillus subtilis ATCC 23857
[14] = tested on: Staphylococcus aureus ATCC 25923
[15] = tested on: Cryptococcus neoformans ATCC 28957
[16] = tested on: Salmonella enterica subsp. enterica serovar Typhimurium ATCC 14028
[17] = tested on: Salmonella enterica subsp. enterica serovar Choleraesuis ATCC 10708
[18] = tested on: Staphylococcus aureus CCT 2580
[19] = tested on: Enterococcus hirae ATCC 10541
[20] = tested on: Streptococcus pneumoniae ATCC 11733
[21] = tested on: Escherichia coli ATCC 11775
[22] = tested on: Micrococcus luteus ATCC 4698
[23] = tested on: Bacillus thuringiensis ATCC 10792
[24] = tested on: Pseudomonas aeruginosa ATCC 13388
[25] = tested on: Staphylococcus aureus CCT 6538
[26] = tested on: Escherichia coli ATCC 25922
[27] = tested on: Escherichia coli CCT 1457
[28] = tested on: Staphylococcus epidermidis ATCC 12228
[29] = tested on: Pseudomonas aeruginosa ATCC 15422
[30] = tested on: Bacillus cereus ATCC 11778
[31] = tested on: Streptococcus mutans AU159
[32] = tested on: Enterococcus faecium CCT 5079
[33] = tested on: Escherichia coli K12 MG1655
[34] = tested on: Escherichia coli JW0013

SMILES: CC[C@H](C)[C@H](NC(=O)[C@H](C)NC(=O)CNC(=O)[C@H](Cc1cnc[nH]1)NC(=O)[C@@H](NC(=O)[C@H](Cc1ccccc1)NC(=O)[C@H](CCCCN)NC(=O)CNC(=O)[C@H](C)NC(=O)[C@H](CCCCN)NC(=O)[C@H](Cc1ccccc1)NC(=O)[C@@H](NC(=O)[C@H](Cc1cnc[nH]1)NC(=O)[C@H](CCCCN)NC(=O)[C@H](Cc1ccccc1)NC(=O)[C@@H](NC(=O)[C@H](CO)NC(=O)CNC(=O)[C@H](Cc1c[nH]c2ccccc12)NC(=O)CNC(=O)[C@H](C)N)[C@@H](C)CC)[C@@H](C)CC)[C@@H](C)CC)C(=O)N[C@@H](CCC(N)=O)C(=O)N[C@@H](C)C(=O)N[C@@H](Cc1cnc[nH]1)C(=O)N[C@@H](CC(N)=O)C(=O)N[C@@H](CC(=O)O)C(C)=O [AGWGSIFKHIFKAGKFIHGAIQAHND]
- MIC [1]: 11.2 µM (≈ 32 µg/mL)
- MIC [2]: 5.61 µM (≈ 16 µg/mL)
- MIC [3]: 5.61 µM (≈ 16 µg/mL)
- MIC [4]: 5.61 µM (≈ 16 µg/mL)
- MIC [5]: 22.4 µM (≈ 64 µg/mL)
- MIC [6]: 5.61 µM (≈ 16 µg/mL)
- MIC [7]: 2.81 µM (≈ 7.99 µg/mL)
- MIC [8]: 5.61 µM (≈ 16 µg/mL)
- MIC [9]: 22.4 µM (≈ 64 µg/mL)
- MIC [10]: 5.61 µM (≈ 16 µg/mL)
- MIC [11]: 11.2 µM (≈ 32 µg/mL)
- MIC [12]: 5.61 µM (≈ 16 µg/mL)

SMILES: CC[C@H](C)[C@H](NC(=O)[C@H](Cc1ccccc1)NC(=O)[C@H](CC(N)=O)NC(=O)[C@H](Cc1ccc(O)cc1)NC(=O)[C@H](CC(C)C)NC(=O)CN)C(=O)N[C@@H](CCCCN)C(=O)N[C@H](C(=O)N[C@@H](CC(C)C)C(=O)NCC(=O)N[C@@H](CCCN=C(N)N)C(=O)N[C@H](C(=O)N[C@H](C(=O)N[C@@H](Cc1ccccc1)C(=O)NCC(=O)N[C@@H](CC(C)C)C(=O)N[C@@H](Cc1ccc(O)cc1)C(=O)N[C@@H](CCCCN)C(=O)N[C@@H](CCC(N)=O)C(=O)N[C@@H](Cc1ccccc1)C(N)=O)C(C)C)[C@@H](C)O)C(C)C [GLYNFIKVLGRTVFGLYKQF]
- MIC [13]: ≥ 256 µM
- MIC [14]: 16 µM (≈ 37.8 µg/mL)
- MIC [15]: ≥ 64 µM

SMILES: CC[C@H](C)[C@H](NC(=O)[C@H](C)NC(=O)[C@H](C)NC(=O)[C@H](CCC(N)=O)NC(=O)CNC(=O)[C@H](CC(C)C)NC(=O)[C@H](Cc1cnc[nH]1)NC(=O)[C@H](CCCCN)NC(=O)[C@H](C)NC(=O)CNC(=O)[C@H](CCCCN)NC(=O)[C@H](CCCNC(=N)N)NC(=O)[C@H](CC(C)C)NC(=O)[C@H](Cc1c[nH]c2ccccc12)NC(=O)[C@H](CCCCN)NC(=O)[C@H](CCCCN)NC(=O)[C@H](Cc1c[nH]c2ccccc12)NC(=O)CN)C(=O)N[C@@H](CCCCN)C(=O)NCC(=O)N[C@@H](CC(C)C)C(=O)N[C@@H](C)C(=O)N[C@@H](CO)C(C)=O [GWKKWLRKGAKHLGQAAIKGLAS]
- MIC [1]: 0.798 µM (≈ 2 µg/mL)
- MIC [2]: 0.399 µM (≈ 0.999 µg/mL)
- MIC [3]: 0.399 µM (≈ 0.999 µg/mL)
- MIC [4]: 6.39 µM (≈ 16 µg/mL)
- MIC [5]: 3.19 µM (≈ 7.99 µg/mL)
- MIC [6]: 0.399 µM (≈ 0.999 µg/mL)
- MIC [7]: 0.798 µM (≈ 2 µg/mL)
- MIC [8]: 0.399 µM (≈ 0.999 µg/mL)
- MIC [9]: 3.19 µM (≈ 7.99 µg/mL)
- MIC [10]: 1.6 µM (≈ 4 µg/mL)
- MIC [11]: 1.6 µM (≈ 4 µg/mL)
- MIC [12]: 12.8 µM (≈ 32 µg/mL)

SMILES: CC[C@H](C)[C@H](NC(=O)[C@H](CCCN=C(N)N)NC(=O)[C@H](CCCN=C(N)N)NC(=O)[C@@H]1CCCN1C(=O)[C@@H]1CCCN1C(=O)[C@H](CCCN=C(N)N)NC(=O)[C@@H]1CCCN1C(=O)[C@H](CCCN=C(N)N)NC(=O)[C@@H]1CCCN1C(=O)[C@H](CC(C)C)NC(=O)[C@H](Cc1ccc(O)cc1)NC(=O)[C@@H]1CCCN1C(=O)CNC(=O)[C@H](CCCCN)NC(=O)[C@H](CC(=O)O)NC(=O)[C@@H](N)C(C)C)C(=O)N[C@@H](Cc1ccc(O)cc1)C(=O)N[C@@H](CC(N)=O)C(=O)N[C@@H](CCCN=C(N)N)C(N)=O [VDKGPYLPRPRPPRRIYNR]
- MIC [34]: 1.4 µM (≈ 3.3 µg/mL)

SMILES: CC[C@H](C)[C@H](NC(=O)[C@H](CCCN=C(N)N)NC(=O)[C@H](CCCN=C(N)N)NC(=O)[C@@H]1CCCN1C(=O)[C@@H]1CCCN1C(=O)[C@H](CCCN=C(N)N)NC(=O)[C@@H]1CCCN1C(=O)[C@H](CCCN=C(N)N)NC(=O)[C@@H]1CCCN1C(=O)[C@H](CC(C)C)NC(=O)[C@H](CCCN=C(N)N)NC(=O)[C@@H]1CCCN1C(=O)[C@H](CCCCN)NC(=O)[C@H](CCCCN)NC(=O)[C@H](CC(=O)O)NC(=O)[C@@H](N)C(C)C)C(=O)N[C@@H](Cc1ccc(O)cc1)C(=O)N[C@@H](CC(N)=O)C(=O)N[C@@H](CCCN=C(N)N)C(N)=O [VDKKPRLPRPRPPRRIYNR]
- MIC [34]: 0.663 µM (≈ 1.6 µg/mL)

Now from value to compound, other results behind:

- MIC [16]: 4.67 µM (≈ 8 µg/mL)
- MIC [18]: 1.17 µM (≈ 2 µg/mL)
- MIC [19]: ≥ 36.8 µM
- MIC [20]: 0.583 µM (≈ 1 µg/mL)
- MIC [21]: 9.33 µM (≈ 16 µg/mL)
- MIC [22]: 0.583 µM (≈ 1 µg/mL)
- MIC [23]: ≥ 72.9 µM
- MIC [24]: 9.33 µM (≈ 16 µg/mL)
- MIC [25]: ≥ 36.8 µM
- MIC [26]: 9.33 µM (≈ 16 µg/mL)
- MIC [14]: 1.17 µM (≈ 2 µg/mL)
- MIC [27]: 0.583 µM (≈ 1 µg/mL)
- MIC [28]: 0.583 µM (≈ 1 µg/mL)
- MIC [29]: 9.33 µM (≈ 16 µg/mL)
- MIC [30]: ≥ 72.9 µM
- MIC [31]: 9.33 µM (≈ 16 µg/mL)
- MIC [32]: 1.17 µM (≈ 2 µg/mL)
SMILES: CC[C@H](C)[C@H](N)C(=O)N[C@@H](CC(N)=O)C(=O)N[C@@H](Cc1c[nH]c2ccccc12)C(=O)N[C@@H](CCCCN)C(=O)N[C@@H](CCCCN)C(=O)N[C@H](C(=O)N[C@@H](CCCCN)C(=O)N[C@@H](CCCCN)C(=O)N[C@@H](CCCCN)C(=O)N[C@H](C(=O)N[C@@H](CCCCN)C(=O)NCC(=O)N[C@@H](CCSC)C(=O)N[C@@H](CC(C)C)C(N)=O)C(C)C)[C@@H](C)CC [INWKKIKKKVKGML]
- MIC [17]: 18.1 µM (≈ 31 µg/mL)

- MIC [16]: 340 µM (≈ 500 µg/mL)
- MIC [18]: 0.68 µM (≈ 0.999 µg/mL)
- MIC [19]: ≥ 340 µM
- MIC [20]: 1.36 µM (≈ 2 µg/mL)
- MIC [21]: ≥ 340 µM
- MIC [22]: ≥ 85 µM
- MIC [23]: ≥ 85 µM
- MIC [24]: ≥ 340 µM
- MIC [25]: ≥ 170 µM
- MIC [26]: 85 µM (≈ 125 µg/mL)
- MIC [14]: 170 µM (≈ 250 µg/mL)
- MIC [27]: 21.1 µM (≈ 31 µg/mL)
- MIC [28]: 42.8 µM (≈ 63 µg/mL)
- MIC [29]: 21.1 µM (≈ 31 µg/mL)
- MIC [30]: ≥ 85 µM
- MIC [31]: ≥ 340 µM
- MIC [32]: ≥ 340 µM
SMILES: CC[C@H](C)[C@H](N)C(=O)N[C@@H](CC(N)=O)C(=O)N[C@@H](Cc1c[nH]c2ccccc12)C(=O)N[C@@H](CC(C)C)C(=O)N[C@@H](CCCCN)C(=O)N[C@H](C(=O)N[C@@H](C)C(=O)N[C@@H](C)C(=O)N[C@@H](C)C(=O)N[C@H](C(=O)N[C@@H](C)C(=O)NCC(=O)N[C@@H](CCSC)C(=O)N[C@@H](CC(C)C)C(N)=O)C(C)C)[C@@H](C)CC [INWLKIAAAVAGML]
- MIC [17]: ≥ 340 µM

- MIC [33]: ≥ 89.8 µM
SMILES: CC[C@H](C)[C@H](NC(=O)CNC(=O)[C@@H](NC(=O)[C@H](CCCCN)NC(=O)[C@H](C)NC(=O)[C@H](CC(C)C)NC(=O)[C@H](CS)NC(=O)[C@H](CCCCN)NC(=O)[C@H](Cc1c[nH]c2ccccc12)NC(=O)[C@@H](N)CCCCN)C(C)C)C(=O)N[C@@H](C)C(=O)N[C@@H](C)C(=O)N[C@@H](Cc1cnc[nH]1)C(=O)O [KWKCLAKVGIAAH]
